Tested on: GNS166 cells
Test: Microarray whole-transcriptome gene expression analysis
Assay type: cell-based, human
Conditions: DMSO vs 5 µM SAHA, upregulated genes
Description: Whole-transcriptome analysis was performed from 300 ng of RNA using HuGene-2_0-st-v1 expression array (Affymetrix), which covers 48,226 transcripts. Raw data were first checked for quality purposes through the Affymetrix® Expression Console™ Software v1.4.1 and TAC software v4.0. Then, data were normalized using the Robust Multi-array Average (RMA) and analyzed by Limma tool. Probesets with FDR-corrected p-values smaller than 0.05 were selected. Functional enrichment on Gene Ontology (GO) biological processes was performed on a smaller subset of the differentially expressed genes (corrected p-value < 0.001) by means of Broad Institute GSEA. […] The data that support this study have been deposited in NCBI´s Gene Expression Omnibus and are accessible through GEO series accession number GSE143887.

O=C(CCCCCCC(=O)Nc1ccccc1)NO [SAHA, Suberoylanilide hydroxamic acid]
logFC NMUR2 (transcript TC0500012531.hg.1): 2.3
logFC PIM1 (transcript TC0600007862.hg.1): 1.267
logFC BCKDHB (transcript TC0600008632.hg.1): 0.8913
logFC SLC16A10 (transcript TC0600009143.hg.1): 1.06
logFC TBPL1 (transcript TC0600009508.hg.1): 0.8103
logFC STK38 (transcript TC0600011661.hg.1): 0.8577
logFC SOGA3 (transcript TC0600013119.hg.1): 1.659
logFC STX7 (transcript TC0600013193.hg.1): 1.104
logFC CYB5R4 (transcript TC0600014148.hg.1): 0.9356
logFC ARL4A (transcript TC0700006737.hg.1): 1.551
logFC AHR (transcript TC0700006795.hg.1): 1.0742
logFC C7orf57 (transcript TC0700007475.hg.1): 1.163
logFC PRKAR2B (transcript TC0700008745.hg.1): 1.383
logFC ANKRD7 (transcript TC0700008898.hg.1): 1.335
logFC SND1 (transcript TC0700009020.hg.1): 0.9855
logFC FAM71F1 (transcript TC0700009060.hg.1): 1.462
logFC DGKB (transcript TC0700010327.hg.1): 0.979
logFC TMEM60 (transcript TC0700011601.hg.1): 0.8857
logFC FAM3C (transcript TC0700012427.hg.1): 0.9259
logFC IQUB (transcript TC0700012456.hg.1): 1.539
logFC RASA4 (transcript TC0700013603.hg.1): 1.334
logFC KIAA1456 (transcript TC0800006802.hg.1): 1.838
logFC PDGFRL (transcript TC0800006873.hg.1): 1.146
logFC PLAT (transcript TC0800010275.hg.1): 1.063
logFC PAG1 (transcript TC0800010926.hg.1): 1.472
logFC EXT1 (transcript TC0800011579.hg.1): 1.229
logFC SLC26A7 (transcript TC0800012325.hg.1): 0.8985
logFC PSAT1 (transcript TC0900007667.hg.1): 0.8807
logFC MLLT3 (transcript TC0900009679.hg.1): 1.79
logFC APBA1 (transcript TC0900010350.hg.1): 1.1769
logFC NR6A1 (transcript TC0900011501.hg.1): 1.227
logFC ALDH1A1 (transcript TC0900012245.hg.1): 1.351
logFC CDC14B (transcript TC0900012256.hg.1): 1.18
logFC BAMBI (transcript TC1000007132.hg.1): 1.194
logFC DNAJC1 (transcript TC1000010006.hg.1): 1.349
logFC ZNF215 (transcript TC1100006749.hg.1): 1.332
logFC GRIA4 (transcript TC1100008948.hg.1): 1.769
logFC C11orf88 (transcript TC1100009023.hg.1): 1.468
logFC SIK2 (transcript TC1100009026.hg.1): 0.9192
logFC NRGN (transcript TC1100009398.hg.1): 0.9705
logFC FZD4 (transcript TC1100011867.hg.1): 1.1951
logFC CCDC82 (transcript TC1100012052.hg.1): 0.8598
logFC IL18 (transcript TC1100012318.hg.1): 1.544
logFC CDON (transcript TC1100012722.hg.1): 2.237
logFC FAM89B (transcript TC1100013043.hg.1): 0.8784
logFC IGF2 (transcript TC1100013131.hg.1): 1.158
logFC C12orf60 (transcript TC1200006948.hg.1): 1.183
logFC ARNTL2 (transcript TC1200007147.hg.1): 1.2211
logFC GDF11 (transcript TC1200007809.hg.1): 1.519
logFC TMTC2 (transcript TC1200008322.hg.1): 1.0601
logFC TMTC3 (transcript TC1200008373.hg.1): 1.159
logFC TXNRD1 (transcript TC1200008675.hg.1): 0.8282
logFC P2RX7 (transcript TC1200009157.hg.1): 1.148
logFC RHEBL1 (transcript TC1200010612.hg.1): 1.826
logFC ATP2B1 (transcript TC1200011474.hg.1): 1.035
logFC LRRC63 (transcript TC1300007085.hg.1): 1.37
logFC SLC46A3 (transcript TC1300008468.hg.1): 1.1281
logFC UBL3 (transcript TC1300008497.hg.1): 0.9113
logFC LCP1 (transcript TC1300008840.hg.1): 1.339
logFC KLF12 (transcript TC1300009249.hg.1): 1.022
logFC SLITRK1 (transcript TC1300009376.hg.1): 1.004
logFC FOXG1 (transcript TC1400006791.hg.1): 0.91
logFC SOCS4 (transcript TC1400007221.hg.1): 0.9561
logFC ARID4A (transcript TC1400007307.hg.1): 0.9227
logFC SLC7A8 (transcript TC1400008705.hg.1): 1.877
logFC GCH1 (transcript TC1400009239.hg.1): 1.069
logFC KLHL28 (transcript TC1400010737.hg.1): 1.205
logFC TMOD2 (transcript TC1500007238.hg.1): 1.505
logFC LRRC49 (transcript TC1500007735.hg.1): 1.1742
logFC DENND4A (transcript TC1500009804.hg.1): 1.04
logFC UACA (transcript TC1500009921.hg.1): 1.398
logFC RGMA (transcript TC1500010501.hg.1): 0.8186
logFC YPEL3 (transcript TC1600009952.hg.1): 1.349
logFC ACSM3 (transcript TC1600011362.hg.1): 1.318
logFC NLK (transcript TC1700007344.hg.1): 1.006
logFC NGFR (transcript TC1700008209.hg.1): 1.322
logFC DYNLL2 (transcript TC1700008418.hg.1): 0.9396
logFC MYO1D (transcript TC1700010358.hg.1): 1.521
logFC MMD (transcript TC1700011181.hg.1): 0.9396
logFC CBX4 (transcript TC1700011953.hg.1): 1.178
logFC UNC13A (transcript TC1900009984.hg.1): 2.076
logFC KIAA1683 (transcript TC1900010008.hg.1): 1.003
logFC DIRAS1 (transcript TC1900011842.hg.1): 0.9114
logFC TGM2 (transcript TC2000009058.hg.1): 1.058
logFC KCNQ2 (transcript TC2000009809.hg.1): 1.266
logFC SRXN1 (transcript TC2000009960.hg.1): 0.9857
logFC SH3BGR (transcript TC2100007166.hg.1): 0.8256
logFC ADAMTS1 (transcript TC2100007821.hg.1): 1.343
logFC TIMP3 (transcript TC2200007150.hg.1): 0.905
